Experimental data reported in patent publication US9127018B2, “Solid forms of ortataxel” (Indena S.p.A., priority 2008, dated 2015).

Test: physical and chemical stability of the solid form
Type: physicochemical
Conditions: solid form prepared with traces of an organic acid (citric acid); storage conditions not given

## CC(=O)O[C@H]1C(=O)[C@@]2(C)[C@H]([C@H](OC(=O)c3ccccc3)[C@]34OC(=O)O[C@H]3[C@H](OC(=O)[C@H](O)[C@H](CC(C)C)NC(=O)OC(C)(C)C)C(C)=C1C4(C)C)[C@]1(OC(C)=O)CO[C@@H]1C[C@@H]2O [Form A, 13-(N-Boc-β-isobutylserinyl)-14-β-hydroxybaccatin III 1, 14-carbonate]
  chemical and physical stability: at least 36 months
